Laboratory results from PubChem BioAssay AID256 (DTP/NCI, 2004).
Where “and” joins values, the source holds several entries; their conditions need not be identical. Equal entries are not always repeated. Inconclusive results and toxic doses are left out.

System: CD2F1 mice, L1210 leukemia ip, survival T/C
Experiment: NCI In Vivo Anticancer Drug Screen. Data for tumor model L1210 Leukemia (intraperitoneal) in CD2F1 (CDF1) mice
Details: higher = longer survival
Summary of the method: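 Antitumor effect is scored in animals hosting a serially transplanted tumor. Values compare compound-dosed animals against vehicle-only controls as a simple quotient.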

[1] = endpoint: mean survival time, dose: 50.0 mg/kg/injection, schedule: Q01DX001 (ip), vehicle: saline with Tween-80
[2] = endpoint: mean survival time, dose: 100.0 mg/kg/injection, schedule: Q01DX001 (ip), vehicle: saline with Tween-80
[3] = endpoint: mean survival time, dose: 200.0 mg/kg/injection, schedule: Q01DX001 (ip), vehicle: saline with Tween-80
[4] = endpoint: mean survival time, dose: 100.0 mg/kg/injection, schedule: Q04DX003 (ip), vehicle: saline with Tween-80
[5] = endpoint: mean survival time, dose: 400.0 mg/kg/injection, schedule: Q04DX003 (ip), vehicle: saline with Tween-80
[6] = endpoint: mean survival time, dose: 100.0 mg/kg/injection, schedule: Q01DX009 (ip), vehicle: saline with Tween-80
[7] = endpoint: mean survival time, dose: 200.0 mg/kg/injection, schedule: Q01DX009 (ip), vehicle: saline with Tween-80
[8] = endpoint: mean survival time, dose: 400.0 mg/kg/injection, schedule: Q01DX009 (ip), vehicle: saline with Tween-80

CSc1ncnc2c1ncn2C1OC(CO)C(O)C1O (stereo not given)
T/C (endpoint: mean survival time, dose: 4.0 mg/kg/injection, schedule: Q01DX009 (ip), vehicle: saline): 118 % of control
T/C (endpoint: mean survival time, dose: 5.0 mg/kg/injection, schedule: Q01DX005 (ip), vehicle: saline): 118 % of control and 124 % of control
T/C (endpoint: mean survival time, dose: 5.0 mg/kg/injection, schedule: Q01DX007 (ip), vehicle: saline): 110 % of control
T/C (endpoint: mean survival time, dose: 5.0 mg/kg/injection, schedule: Q01DX009 (ip), vehicle: saline): 114 % of control
T/C (endpoint: mean survival time, dose: 5.0 mg/kg/injection, schedule: Q03DX003 (ip), vehicle: saline): 115 % of control
T/C (endpoint: mean survival time, dose: 5.0 mg/kg/injection, schedule: Q04DX003 (ip), vehicle: saline): 103 % of control
T/C (endpoint: mean survival time, dose: 10.0 mg/kg/injection, schedule: Q01DX007 (ip), vehicle: saline): 116 % of control
T/C (endpoint: mean survival time, dose: 10.0 mg/kg/injection, schedule: Q01DX009 (ip), vehicle: saline): 121 % of control
T/C (endpoint: mean survival time, dose: 10.0 mg/kg/injection, schedule: Q03DX003 (ip), vehicle: saline): 122 % of control
T/C (endpoint: mean survival time, dose: 10.0 mg/kg/injection, schedule: Q04DX003 (ip), vehicle: saline): 112 % of control
T/C (endpoint: mean survival time, dose: 12.5 mg/kg/injection, schedule: Q01DX009 (ip), vehicle: saline): 150 % of control
T/C (endpoint: mean survival time, dose: 20.0 mg/kg/injection, schedule: Q01DX005 (ip), vehicle: saline): 154 % of control
T/C (endpoint: mean survival time, dose: 20.0 mg/kg/injection, schedule: Q04DX003 (ip), vehicle: saline): 114 % of control
T/C (endpoint: mean survival time, dose: 25.0 mg/kg/injection, schedule: Q01DX001 (ip), vehicle: saline): 118 % of control
T/C (endpoint: mean survival time, dose: 32.0 mg/kg/injection, schedule: Q01DX009 (ip), vehicle: saline): 115 % of control
T/C (endpoint: mean survival time, dose: 40.0 mg/kg/injection, schedule: Q01DX005 (ip), vehicle: saline): 164 % of control and 166 % of control
T/C (endpoint: mean survival time, dose: 64.0 mg/kg/injection, schedule: Q01DX009 (ip), vehicle: saline): 80 % of control
T/C (endpoint: mean survival time, dose: 80.0 mg/kg/injection, schedule: Q01DX005 (ip), vehicle: saline): 119 % of control
T/C (endpoint: median survival time, dose: 18.0 mg/kg/injection, schedule: Q01DX009 (ip), vehicle: saline): 155 % of control
T/C (endpoint: median survival time, dose: 27.0 mg/kg/injection, schedule: Q01DX009 (ip), vehicle: saline): 170 % of control and 191 % of control
T/C (endpoint: median survival time, dose: 30.0 mg/kg/injection, schedule: Q01DX009 (ip), vehicle: saline): 158 % of control and 161 % of control
T/C (endpoint: median survival time, dose: 35.0 mg/kg/injection, schedule: Q01DX009 (ip), vehicle: saline): 183 % of control
T/C (endpoint: median survival time, dose: 45.0 mg/kg/injection, schedule: Q01DX009 (ip), vehicle: saline): 119 % of control and 108 % of control
T/C (endpoint: median survival time, dose: 123.0 mg/kg/injection, schedule: Q01DX001 (ip), vehicle: saline): 157 % of control
T/C (endpoint: median survival time, dose: 185.0 mg/kg/injection, schedule: Q01DX001 (ip), vehicle: saline with Tween-80): 160 % of control
T/C (endpoint: median survival time, dose: 185.0 mg/kg/injection, schedule: Q01DX001 (ip), vehicle: saline): 151 % of control

CC(N)(C(=O)O)c1ccccc1 (stereo not given)
T/C (endpoint: mean survival time, dose: 100.0 mg/kg/injection, schedule: Q01DX001 (ip), vehicle: other): 92 % of control and 96 % of control
T/C (endpoint: mean survival time, dose: 200.0 mg/kg/injection, schedule: Q01DX001 (ip), vehicle: other): 100 % of control and 102 % of control
T/C (endpoint: mean survival time, dose: 400.0 mg/kg/injection, schedule: Q01DX001 (ip), vehicle: other): 96 % of control and 94 % of control

NCCN.[Ni+2].[O-]c1ccccc1[O-].[O-]c1ccccc1[O-]
T/C (endpoint: mean survival time, dose: 0.78 mg/kg/injection, schedule: Q01DX009 (ip), vehicle: other): 96 % of control
T/C (endpoint: mean survival time, dose: 1.56 mg/kg/injection, schedule: Q01DX009 (ip), vehicle: other): 93 % of control
T/C (endpoint: mean survival time, dose: 3.13 mg/kg/injection, schedule: Q01DX009 (ip), vehicle: other): 108 % of control
T/C (endpoint: mean survival time, dose: 6.25 mg/kg/injection, schedule: Q01DX009 (ip), vehicle: other): 112 % of control
T/C (endpoint: mean survival time, dose: 12.5 mg/kg/injection, schedule: Q01DX009 (ip), vehicle: other): 98 % of control

CCN(C(=O)Nc1ccccc1)c1ccccc1
T/C (endpoint: mean survival time, dose: 75.0 mg/kg/injection, schedule: Q04DX003 (ip), vehicle: saline with Tween-80): 98 % of control
T/C (endpoint: mean survival time, dose: 150.0 mg/kg/injection, schedule: Q04DX003 (ip), vehicle: saline with Tween-80): 98 % of control
T/C (endpoint: mean survival time, dose: 300.0 mg/kg/injection, schedule: Q04DX003 (ip), vehicle: saline with Tween-80): 106 % of control

CCOC(=O)Nc1cc(N(C)C)c(N)c(N)n1
T/C (endpoint: mean survival time, dose: 100.0 mg/kg/injection, schedule: Q01DX001 (ip), vehicle: carboxymethylcellulose (CMC)): 100 % of control
T/C (endpoint: mean survival time, dose: 200.0 mg/kg/injection, schedule: Q01DX001 (ip), vehicle: carboxymethylcellulose (CMC)): 100 % of control

CC1=CC(=O)C(Sc2ccc(C)cc2)=CC1=O
T/C (endpoint: mean survival time, dose: 50.0 mg/kg/injection, schedule: Q01DX009 (ip), vehicle: saline with Tween-80): 94 % of control

Nc1ccnn1CCO
T/C (endpoint: mean survival time, dose: 100.0 mg/kg/injection, schedule: Q04DX003 (ip), vehicle: water): 102 % of control
T/C (endpoint: mean survival time, dose: 200.0 mg/kg/injection, schedule: Q04DX003 (ip), vehicle: water): 101 % of control
T/C (endpoint: mean survival time, dose: 400.0 mg/kg/injection, schedule: Q04DX003 (ip), vehicle: water): 101 % of control

CC(C)(C)/[N+]([O-])=N/O
T/C (endpoint: mean survival time, dose: 75.0 mg/kg/injection, schedule: Q01DX001 (ip), vehicle: saline): 101 % of control

CCOC(=O)NCC1CCC(CO)CC1 (stereo not given)
T/C (endpoint: mean survival time, dose: 100.0 mg/kg/injection, schedule: Q04DX002 (ip), vehicle: saline with Tween-80): 95 % of control
T/C (endpoint: mean survival time, dose: 200.0 mg/kg/injection, schedule: Q04DX002 (ip), vehicle: saline with Tween-80): 117 % of control
T/C (endpoint: mean survival time, dose: 400.0 mg/kg/injection, schedule: Q04DX002 (ip), vehicle: saline with Tween-80): 98 % of control

CCOC(=O)N/N=C/c1cc(Cl)cc(Cl)c1O
T/C [1]: 111 % of control
T/C [2]: 98 % of control
T/C [3]: 90 % of control

COc1ccc(OC)c(-c2cn(C3CC(O)C(CO)O3)c(=O)[nH]c2=O)c1 (stereo not given)
T/C (endpoint: median survival time, dose: 12.5 mg/kg/injection, schedule: Q01DX005 (ip), vehicle: water): 100 % of control
T/C (endpoint: median survival time, dose: 25.0 mg/kg/injection, schedule: Q01DX005 (ip), vehicle: water): 102 % of control
T/C (endpoint: median survival time, dose: 50.0 mg/kg/injection, schedule: Q01DX005 (ip), vehicle: water): 97 % of control
T/C (endpoint: median survival time, dose: 100.0 mg/kg/injection, schedule: Q01DX005 (ip), vehicle: water): 102 % of control
T/C (endpoint: median survival time, dose: 200.0 mg/kg/injection, schedule: Q01DX005 (ip), vehicle: water): 98 % of control

CCC(C)N(CCCOC(=O)c1ccc(N)cc1)C(C)CC (stereo not given)
T/C (endpoint: mean survival time, dose: 12.5 mg/kg/injection, schedule: Q04DX003 (ip), vehicle: saline): 103 % of control
T/C (endpoint: mean survival time, dose: 25.0 mg/kg/injection, schedule: Q04DX003 (ip), vehicle: saline): 107 % of control
T/C (endpoint: mean survival time, dose: 50.0 mg/kg/injection, schedule: Q04DX003 (ip), vehicle: saline): 103 % of control

OC(CI)C(O)C(O)C(O)CI (stereo not given) (tested in a mixture with another compound)
T/C [1]: 96 % of control
T/C [2]: 100 % of control
T/C [3]: 96 % of control

O=C(O)c1ccccc1C(=O)Nc1ccc([N+](=O)[O-])cc1
T/C [4]: 98 % of control
T/C [5]: 91 % of control

O=C(Nc1ccc2c3c(cccc13)CC2)c1cccc([N+](=O)[O-])c1
T/C [6]: 94 % of control
T/C [7]: 95 % of control
T/C [8]: 97 % of control

OC(c1ccccc1)C1(c2ccccc2)OCCO1 (stereo not given)
T/C [6]: 95 % of control
T/C [4]: 97 % of control
T/C [7]: 90 % of control
T/C (endpoint: mean survival time, dose: 200.0 mg/kg/injection, schedule: Q04DX003 (ip), vehicle: saline with Tween-80): 92 % of control
T/C [8]: 92 % of control
T/C [5]: 98 % of control

CN(Cc1cnc2nc(N)nc(N)c2n1)c1c(Cl)cc(C(=O)NC(CCC(=O)O)C(=O)O)cc1Cl (stereo not given)
T/C (endpoint: mean survival time, dose: 44.0 mg/kg/injection, schedule: Q01DX009 (ip), vehicle: sodium bicarbonate): 224 % of control
T/C (endpoint: mean survival time, dose: 67.0 mg/kg/injection, schedule: Q01DX009 (ip), vehicle: sodium bicarbonate): 256 % of control
T/C (endpoint: mean survival time, dose: 100.0 mg/kg/injection, schedule: Q01DX009 (ip), vehicle: sodium bicarbonate): 193 % of control
T/C (endpoint: mean survival time, dose: 133.0 mg/kg/injection, schedule: Q01DX009 (ip), vehicle: sodium bicarbonate): 170 % of control
T/C (endpoint: mean survival time, dose: 150.0 mg/kg/injection, schedule: Q01DX009 (ip), vehicle: sodium bicarbonate): 116 % of control
T/C (endpoint: mean survival time, dose: 160.0 mg/kg/injection, schedule: Q01DX009 (ip), vehicle: sodium bicarbonate): 123 % of control
T/C (endpoint: median survival time, dose: 125.0 mg/kg/injection, schedule: Q01DX009 (ip), vehicle: sodium bicarbonate): 123 % of control
T/C (endpoint: median survival time, dose: 150.0 mg/kg/injection, schedule: Q01DX009 (ip), vehicle: sodium bicarbonate): 112 % of control
